The NIST ThermoML archive (doi:10.1021/je7007632)
± gives the expanded uncertainty stated by the source.

Tests used:
[1] = refractive index (Na D-line) (dimensionless); settings: 101.33 kPa, Liquid, Standard Abbe refractometry
[2] = refractive index (Na D-line) (dimensionless); xn = mol fraction of the nth substance listed; settings: 101 kPa, Liquid, Standard Abbe refractometry

CC(O)CCO (centres undefined) [1,3-butanediol]
[1]
Settings | refractive index
293.15 K | 1.4412 ± 0.0004
298.15 K | 1.4391 ± 0.0004
303.15 K | 1.437 ± 0.0004
308.15 K | 1.4349 ± 0.0004
313.15 K | 1.4329 ± 0.0004
318.15 K | 1.4308 ± 0.0004

CC(O)CCO (centres undefined) [1,3-butanediol] + NC=O
refractive index, [2]
Settings | x2 = 0 | x2 = 0.1061 | x2 = 0.2004 | x2 = 0.3068 | x2 = 0.4026 | x2 = 0.5033 | x2 = 0.6046 | x2 = 0.7013 | x2 = 0.8073 | x2 = 0.9058
293.15 K | 1.4412 ± 0.0004 | 1.441 ± 0.0004 | 1.4409 ± 0.0004 | 1.4411 ± 0.0004 | 1.4414 ± 0.0004 | 1.4419 ± 0.0004 | 1.4425 ± 0.0004 | 1.4434 ± 0.0004 | 1.4445 ± 0.0004 | 1.4459 ± 0.0004
298.15 K | 1.4391 ± 0.0004 | 1.4389 ± 0.0004 | 1.4389 ± 0.0004 | 1.4391 ± 0.0004 | 1.4395 ± 0.0004 | 1.4401 ± 0.0004 | 1.4409 ± 0.0004 | 1.4419 ± 0.0004 | 1.4432 ± 0.0004 | 1.4448 ± 0.0004
303.15 K | 1.437 ± 0.0004 | 1.4368 ± 0.0004 | 1.4369 ± 0.0004 | 1.4372 ± 0.0004 | 1.4377 ± 0.0004 | 1.4384 ± 0.0004 | 1.4393 ± 0.0004 | 1.4404 ± 0.0004 | 1.4419 ± 0.0004 | 1.4437 ± 0.0004
308.15 K | 1.4349 ± 0.0004 | 1.4348 ± 0.0004 | 1.4349 ± 0.0004 | 1.4352 ± 0.0004 | 1.4358 ± 0.0004 | 1.4366 ± 0.0004 | 1.4377 ± 0.0004 | 1.4389 ± 0.0004 | 1.4406 ± 0.0004 | 1.4427 ± 0.0004
313.15 K | 1.4329 ± 0.0004 | 1.4328 ± 0.0004 | 1.4329 ± 0.0004 | 1.4333 ± 0.0004 | 1.434 ± 0.0004 | 1.4349 ± 0.0004 | 1.436 ± 0.0004 | 1.4374 ± 0.0004 | 1.4393 ± 0.0004 | 1.4415 ± 0.0004
318.15 K | 1.4308 ± 0.0004 | 1.4307 ± 0.0004 | 1.4309 ± 0.0004 | 1.4314 ± 0.0004 | 1.4321 ± 0.0004 | 1.4331 ± 0.0004 | 1.4344 ± 0.0004 | 1.4359 ± 0.0004 | 1.4379 ± 0.0004 | 1.4404 ± 0.0004

OCCCCO [1,4-butanediol]
[1]
Settings | refractive index
293.15 K | 1.4451 ± 0.0004
298.15 K | 1.4431 ± 0.0004
303.15 K | 1.4411 ± 0.0004
308.15 K | 1.4391 ± 0.0004
313.15 K | 1.4372 ± 0.0004
318.15 K | 1.4352 ± 0.0004

OCCCCO [1,4-butanediol] + NC=O
refractive index, [2]
Settings | x2 = 0 | x2 = 0.1052 | x2 = 0.1988 | x2 = 0.3041 | x2 = 0.4002 | x2 = 0.5009 | x2 = 0.6022 | x2 = 0.6992 | x2 = 0.8051 | x2 = 0.905
293.15 K | 1.4451 ± 0.0004 | 1.4445 ± 0.0004 | 1.444 ± 0.0004 | 1.4437 ± 0.0004 | 1.4436 ± 0.0004 | 1.4437 ± 0.0004 | 1.444 ± 0.0004 | 1.4445 ± 0.0004 | 1.4452 ± 0.0004 | 1.4463 ± 0.0004
298.15 K | 1.4431 ± 0.0004 | 1.4425 ± 0.0004 | 1.442 ± 0.0004 | 1.4418 ± 0.0004 | 1.4418 ± 0.0004 | 1.442 ± 0.0004 | 1.4424 ± 0.0004 | 1.4431 ± 0.0004 | 1.4439 ± 0.0004 | 1.4452 ± 0.0004
303.15 K | 1.4411 ± 0.0004 | 1.4405 ± 0.0004 | 1.44 ± 0.0004 | 1.4399 ± 0.0004 | 1.44 ± 0.0004 | 1.4403 ± 0.0004 | 1.4408 ± 0.0004 | 1.4416 ± 0.0004 | 1.4426 ± 0.0004 | 1.4441 ± 0.0004
308.15 K | 1.4391 ± 0.0004 | 1.4385 ± 0.0004 | 1.438 ± 0.0004 | 1.438 ± 0.0004 | 1.4382 ± 0.0004 | 1.4386 ± 0.0004 | 1.4392 ± 0.0004 | 1.4401 ± 0.0004 | 1.4413 ± 0.0004 | 1.443 ± 0.0004
313.15 K | 1.4372 ± 0.0004 | 1.4365 ± 0.0004 | 1.4361 ± 0.0004 | 1.4361 ± 0.0004 | 1.4364 ± 0.0004 | 1.4369 ± 0.0004 | 1.4376 ± 0.0004 | 1.4386 ± 0.0004 | 1.44 ± 0.0004 | 1.4419 ± 0.0004
318.15 K | 1.4352 ± 0.0004 | 1.4345 ± 0.0004 | 1.4341 ± 0.0004 | 1.4342 ± 0.0004 | 1.4345 ± 0.0004 | 1.4351 ± 0.0004 | 1.4359 ± 0.0004 | 1.437 ± 0.0004 | 1.4386 ± 0.0004 | 1.4407 ± 0.0004

CCCCO [butan-1-ol]
[1]
Settings | refractive index
293.15 K | 1.3994 ± 0.0004
298.15 K | 1.3974 ± 0.0004
303.15 K | 1.3953 ± 0.0004
308.15 K | 1.3933 ± 0.0004
313.15 K | 1.3913 ± 0.0004
318.15 K | 1.3893 ± 0.0004

CCCCO [butan-1-ol] + NC=O
[2], x2 = 0
Settings | refractive index
293.15 K | 1.3994 ± 0.0004
298.15 K | 1.3974 ± 0.0004
303.15 K | 1.3953 ± 0.0004
308.15 K | 1.3933 ± 0.0004
313.15 K | 1.3913 ± 0.0004
318.15 K | 1.3893 ± 0.0004
